Read-outs that look alike come from different tables or passages of the source.
Type: physicochemical
Details: for retention of 2-n-octyl-3-isothiazolone active ingredient after 14 days: 1% solution in 95% propylene glycol/5% water, pH 10.0-10.1 (NaOH), no metal salt stabilizers
Experimental: A 2-n-octyl-3-isothiazolone solution (1%) was prepared in 95% propylene glycol/5% water and the pH was adjusted to 10.0-10.1 with NaOH; no metal salt stabilizers were added to the mixture. Samples of this mixture were then stored at ambient temperature (approximately 25° C.) and also in an oven at 40° C. After 14 days, there was no loss of 2-n-octyl-3-isothiazolone active ingredient (100% retention) for samples stored at either 25° C. or 40° C.

For `CCCCCCCCn1sccc1=O` [2-n-octyl-3-isothiazolone, 2-n-Octyl-3-isothiazolone], the “stability at high pH in the absence of amines (in words)” value was “stable”, the “retention of 2-n-octyl-3-isothiazolone active ingredient after 14 days” value (40° C.) was 100% and the “retention of 2-n-octyl-3-isothiazolone active ingredient after 14 days” value (approx. 25° C.) was 100%.
